In patent publication US9072729B2, “Method for treating fibrosis and cancer with imidazolium and imidazolinium compounds” (Agency for Science, Technology and Research, priority 2008, dated 2015):

What was measured:
HLE cells = assay: DNA content analysis (cell cycle) in HLE cells; type: cell-based, human; settings: 0, 1, 3 mM, 24 hr
Description: FIG. 21. DBZIM inhibited cell proliferation and disrupted cell cycle in HLE cells (A). DBZIM inhibited HCC cell proliferation. HLE cells were seeded at a density of 5000 cells/well in 96-well plate, and cultured for 18-24 h in 10% […] DMEM before the addition of various compounds (0-1.25 mM) in 10% FBS DMEM for 48 h of proliferation before assaying. Cell count was calculated based on Hoechst dye staining and BrdU incorporation was based on the total fluorescence intensity of antibody staining. (B). DBZIM arrested HCC cells at G0/G1 phase. HLE cells were incubated with DBZIM (0, 1, 3 mM) for 24 hr before fixation and DAPI staining for DNA content (2N vs. 4N) determination.
HLE cells grown in a 96-well plate were treated with compounds in 6 replicates for 24 hr. Cells were then fixed with 4% paraformaldehyde and stained with DAPI. Cells were analyzed and imaged on ArrayScan VTI HCS reader (Thermal Scientific, PA, USA) and DNA content (2N vs. 4N) was determined based on DAPI staining.

[1] = tested on: cytochrome C in HLE cells; assay: Western blot of cytochrome c release from mitochondria to cytosol; type: cell-based, human; settings: 1.5 mM, 24 hr
Description: FIG. 23. (A). […] HLE cells were grown in a T75 flask and treated with DBZIM for 24 hr. The cells were then lysed and cytoplasmic protein was collected for assaying caspase 8, 9 and 3 using kits from Biovision. The data was normalized against the vehicle control. (B). […] HLE cells were treated by DBZIM of 1.5 mM for 24 hr. Cytosolic and mitochondria protein fractions were collected using a kit from Biovision. 15 μg of each protein was resolved in 4-12% gradient PAGE-SDS gel. The target proteins were recognized by antibody of cytochrome C, and visualized by the ECL method. […]
Protein extracts were prepared by lysing cell pellet in RIPA buffer (Pierce, Ill., USA) for total protein extract, or in NE-PER reagent from Pierce (Pierce, Ill., USA) for nuclear and cytoplasmic fractions, or in a Kit from BioVision (CA, USA) for mitochondria and cytosol fractions. Protein content was quantified using BCA Kit (Pierce, Ill., USA). […] The membrane was then probed with primary antibodies against Bcl-XL, Bak, Bcl-2α, Bax (Lab Vision Corp., CA, USA), survivin, xIAP, cIAP (R&D systems Inc., MN, USA), c-Jun, c-Fos, JunB, JunD, Fra-1, Fra-2 (Santa Cruz Biotechnology, CA, USA) respectively, and detected by horseradish peroxidase-conjugated secondary antibody (Santa Cruz Biotechnology, CA, USA). Protein bands were recorded on X-ray film by reacting with ECL chemiluminescence reagents (Amersham Biosciences, NJ, USA). […]

H1299 = assay: Proliferation assay (MTS), lung cancer cell line; type: cell-based; settings: Homo sapiens, NCI-H1299, 72 h, determined at day 3
Description: (§1) Proliferation of Glioma cell lines: U87 MG and C6 under the treatment of DBZIM was examined using 3-(4,5-dimethylthiazol-2-yl)-5-(3-carboxymethoxyphenyl)-2-(4-sulfophenyl)-2H-tetrazolium (MTS) based proliferation assay kit (Promega, Wis., USA). MTS reagent was added to the control and treated cells (after 48 hr) directly and the absorbance signal was read at 490 nm using a Tecan Safire II plate reader.
(§2) The IC50 value (determined at day 3) was 50 μM for H1299 (lung cancer); 50 μM for MCF-7 (breast cancer), and 40 μM for AGS gastric cancer at day 3 (Table 3).

MCF-7 = assay: Proliferation assay (MTS), breast cancer cell line; type: cell-based; settings: Homo sapiens, MCF7, 72 h; MCF-7 (breast cancer), determined at day 3
Description: as §1, §2

IMR90 = assay: Cytotoxicity on normal (non-cancerous) lung cells; type: cell-based
Description: as §2

U87 MG = assay: Proliferation assay (MTS), glioma U87 MG; type: cell-based; settings: Homo sapiens, U-87 MG, 48 h, determined at day 2
Description: FIG. 30. DBZIM inhibited cell proliferation in glioma cell line C6 (A) and U87 MG (C) and induced caspase 3/7 activity in C6 (B) and U87 MG (D). C6 or U87 cells were incubated with DBZIM of various concentrations for 48 hr for proliferation assay and 6 hr for caspase 3/7 activation assay. Proliferation was measured using MTS kit from Promega and expressed as relative cell proliferation with control group was normalized to 1. Caspase 3/7 activity was quantified using a kit from Promega and also expressed as relative caspase 3/7 activity of treated groups over control group.
as §1

caspase-3/9 and PARP = assay: Western blot of caspase-3, caspase-9 and PARP in MCF-7 and AGS; type: cell-based, human; settings: 50 μM
Description: FIG. 31. DBZIM induces cleavage of caspase-3, caspase-9 and PARP as indication of apoptosis. Western blot analysis for the effect of DBZIM, on the cleavage of caspase-3, Caspase-9 and PARP A) in p53 wild type gastric cancer cell AGS and B) in p53 wild type breast cancer cell line MCF-7. Western blot analysis conducted on cells after 72 h exposure to 50 μM of DBZIM.
To determine whether cells undergo apoptosis, Western blotting was first performed for a caspase-3/9 and PARP activation with proteins from MCF-7 and AGS treated with DBZIM. […] Similarly we observed a DBZIM-induced elevation of caspase 3/7 in C6 (by 3 folds at 2.0 mM) and in U87 MG (by 17 folds at 2 mM) (FIGS. 30B and 30D).

[2] = Stability in drinking water by NMR analysis; type: physicochemical; settings: room temperature

| Structure (SMILES) | cell cycle arrest (HLE cells) | release of cytochrome C from the mitochondria to the cytosol [1] | IC50 (H1299) [µM] | IC50 (MCF-7) [µM] | cytotoxicity on normal lung cells (IMR90) | IC50 (U87 MG) [µM] | caspase-3/9 and PARP activation (caspase-3/9 and PARP) | stability in water [2] |
| --- | --- | --- | --- | --- | --- | --- | --- | --- |
| [Br-].c1ccc(Cn2cc[n+](Cc3ccccc3)c2)cc1 [DBZIM, 1,3-bisbenzylimidazolium bromide] | arrested HLE cells in the G0/G1 phase | minimal release | 50 | 50 | much less cytotoxicity | 2100 | time-dependently increased caspase-3/9 and PARP activity | – |
| CC(C)n1cc[n+](C(C)C)c1.F[B-](F)(F)F [DPIM, 1,3-diisopropylimidazolium tetrafluoroborate] | – | – | – | – | – | – | – | stable in water at room temperature condition for at least two weeks |
